Data on one molecule can be found in patent US20260014194A1, “COMBINATIONS COMPRISING METAP2 INHIBITORS FOR THE TREATMENT OF CANCER” (SynDevRx, Inc., priority 2022, published 2026).

One data set has as its system MCF-7 cells. Briefly: MCF-7 mammary fat pad tumor model: tumor volume and tumor growth inhibition. Format: in vivo, NU/j mice. To be noted: inavolisib 25 mg/kg PO QD. The method, then: (§1) Animals: Female NU/j mice, 6 weeks of age upon delivery, were received and acclimated at 5 mice per cage for a minimum of 7 days. Mice were housed in autoclaved caging with autoclaved water throughout the course of the study. The animals had free access to food (irradiated chow 2920X) and water. The animals were housed in a temperature and humidity-controlled room with a 12-hour light cycle.
Cell Culture: MCF-7 cells were cultured in Dulbecco's Modified Eagle Medium (DMEM) with 10% FBS.
Tumor Cell Implantation: On the day of implantation, cells were washed 1× with phosphate-buffered saline (PBS). Following washing, cells were pelleted (5 min @1000 rpm, RT) and then counted with a hemocytometer. A cell concentration of 5×10^6 per mouse was re-suspended in an appropriate amount of PBS and 1:1 Matrigel (kept on ice until implantation). Forty-eight hours prior to cell implantation, a 17-β estradiol pellet (0.36 mg 60-day slow release pellet) was implanted subcutaneously between the scapulae of each mouse. […]
Tumor Assessment: prior to cell implantation, all animals were ear tagged. Beginning 5 days post cell implantation, tumors were measured two times weekly (length×width) using a wireless Mitutoyo UWAVE-T digital calipers in conjunction with UWAVE-R to record measurements. […] Randomization was determined by tumor volume of all of the mice. […]

Data set [1] can be described thus: Body weight in MCF-7 tumor-bearing mice. Type of data set: in vivo, NU/j mice. The conditions noted are these: FIG. 34; compared to vehicle group; Compound 1 8 mg/kg, inavolisib 25 mg/kg. The method, then:
as §1
Inavolisib was administered orally (PO) once per day (QD) at an amount of 25 mg/kg for the duration of the study.

On to `C[C@H](Nc1ccc2c(c1)OCCn1cc(N3C(=O)OC[C@H]3C(F)F)nc1-2)C(N)=O` [Inavolisib, inavolisib], for which the “Tumor Growth Inhibition” value with MCF-7 cells (Day 25, Compound 1 8 mg/kg SC Q4D) worked out at 74%. Besides, the “Tumor Volume on Day 25” value in the data set on MCF-7 cells (starting tumor volume 59 mm^3, Compound 1 8 mg/kg SC Q4D, vehicle 469 mm^3) amounted to 167 mm^3. In data set [1], the “Weight loss (body weight change over the study)” value was “increased as compared to the vehicle group”.
